In the supplement of paper PMC11208160:

Assay: recombinant barcode read abundance after kanamycin selection (control-corrected) (log10(CPM+1)); higher = more efficient recombination; sequences stand for … in AGTGCAGAGAAAATCGGCCAGTTTTCTCTGCCTGCAGTCCGCATGCCGT…AGATTTATGCAGCGGACTGCCTTTCTCCCAAAGTGATAAACCGGACAGTATCATGGACCGGTTTTCCCGGTAATCCGTATTTGCAAGGTTGGTTTCACT; site = the 11-nt target
Outline: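 Recombination efficiency was calculated from barcode counts at recombinant junctions, normalized to counts per million, averaged and corrected by the control. Each value is given as log10(CPM+1). The constructs were Gibson-cloned oligos (promoter, target, barcode, J23119-driven first 104 bridge RNA bases) in a vector with the remaining 73 bp and a T7-inducible recombinase, co-electroporated into E. coli with a donor plasmid and plated in duplicate on chloramphenicol/ampicillin LB agar (control) or chloramphenicol/ampicillin/kanamycin with 0.1 mM IPTG.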
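Note: IS621 recombinase and bridge RNA in Escherichia coli cells.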

Point of comparison: “CACTTATCTTGGGTTCTAACCTGTTGCCT (site CACTTAACTAG)”, “recombinant barcode read abundance (log10)” value 0.149. Against it:
- CACATGCCTTGGGTTCTAACCTGTTGCTG (site CACATGCCTCA) — higher, 2
- CACATGCCTTGGGTTCTAACCTGTTGCTG (site TTGTACACTGG) — within 0.2 log units, 0.0315
- CACCAGACTTGGGTTCTAACCTGTTGCCA (site ACAATCTCTGA) — within 0.2 log units, 0.0296
- CACCAGACTTGGGTTCTAACCTGTTGCCA (site CACCAGACTTG) — higher, 0.539
- CACCCACCTTGGGTTCTAACCTGTTGCCT (site AACCCACCTAG) — within 0.2 log units, 0.0311
- CACCCACCTTGGGTTCTAACCTGTTGCCT (site CACCCACCTAG) — higher, 1.66
- CACCCACCTTGGGTTCTAACCTGTTGCCT (site GACCCACCTAG) — within 0.2 log units, 0.0974
- CACCCACCTTGGGTTCTAACCTGTTGCCT (site TACCCACCTAG) — within 0.2 log units, 0.0304
- CACCCTTCTTGGGTTCTAACCTGTTGCTC (site CACCCTTCTGA) — higher, 1.94
- CACCCTTCTTGGGTTCTAACCTGTTGCTC (site TCTGGCCCTAG) — within 0.2 log units, 0.0488
- CACCGAGCTTGGGTTCTAACCTGTTGCTA (site CACCGAGCTTA) — higher, 0.528
- CACCGAGCTTGGGTTCTAACCTGTTGCTA (site TTGACGACTCG) — within 0.2 log units, 0.177
- CACCTTCCTTGGGTTCTAACCTGTTGCAT (site CACATACCTAT) — within 0.2 log units, 0.196
- CACCTTCCTTGGGTTCTAACCTGTTGCAT (site CACCTTCCTAT) — higher, 1.77
- CACGACCCTTGGGTTCTAACCTGTTGCCT (site CAAGACCCTAG) — within 0.2 log units, 0.0526
- CACGACCCTTGGGTTCTAACCTGTTGCCT (site CACGACCCTAG) — higher, 2.05
- CACGACCCTTGGGTTCTAACCTGTTGCCT (site CAGGACCCTAG) — within 0.2 log units, 0.0694
- CACGACCCTTGGGTTCTAACCTGTTGCCT (site CATGACCCTAG) — within 0.2 log units, 0.16
- CACGAGGCTTGGGTTCTAACCTGTTGCCT (site CACGAGACTAG) — higher, 0.707
- CACGAGGCTTGGGTTCTAACCTGTTGCCT (site CACGAGCCTAG) — within 0.2 log units, 0.0831
- CACGAGGCTTGGGTTCTAACCTGTTGCCT (site CACGAGGCTAG) — higher, 0.527
- CACGAGGCTTGGGTTCTAACCTGTTGCCT (site CACGAGTCTAG) — within 0.2 log units, 0.322
- CACGATGCTTGGGTTCTAACCTGTTGCCT (site CAAGATGCTAG) — higher, 0.437
- CACGATGCTTGGGTTCTAACCTGTTGCCT (site CACGATGCTAG) — higher, 0.789
- CACGATGCTTGGGTTCTAACCTGTTGCCT (site CAGGATGCTAG) — within 0.2 log units, 0.226
- CACGATGCTTGGGTTCTAACCTGTTGCCT (site CATGATGCTAG) — higher, 0.351
- CACGCTTCTTGGGTTCTAACCTGTTGCTA (site CACGCGTCTCA) — within 0.2 log units, 0.0477
- CACGCTTCTTGGGTTCTAACCTGTTGCTA (site CACGCTTCTTA) — higher, 1.01
- CACGGTCCTTGGGTTCTAACCTGTTGCCT (site CACGGTCCTAG) — higher, 2.13
- CACGGTCCTTGGGTTCTAACCTGTTGCCT (site CTCGGTGCTAG) — within 0.2 log units, 0.0233
- CACTCTCCTTGGGTTCTAACCTGTTGCAT (site CACTCTCCTAG) — within 0.2 log units, 0.11
- CACTCTCCTTGGGTTCTAACCTGTTGCAT (site CACTCTCCTAT) — higher, 0.728
- CACTGGTCTTGGGTTCTAACCTGTTGCCT (site CACTGATCTAG) — higher, 0.532
- CACTGGTCTTGGGTTCTAACCTGTTGCCT (site CACTGCTCTAG) — within 0.2 log units, 0.0756
- CACTGGTCTTGGGTTCTAACCTGTTGCCT (site CACTGGTCTAG) — higher, 1.12
- CACTGGTCTTGGGTTCTAACCTGTTGCCT (site CACTGTTCTAG) — within 0.2 log units, 0.0874
- CACTTATCTTGGGTTCTAACCTGTTGCCT (site CACTTACCTAG) — within 0.2 log units, 0.308
- CACTTATCTTGGGTTCTAACCTGTTGCCT (site CACTTAGCTAG) — within 0.2 log units, 0.0751
- CACTTATCTTGGGTTCTAACCTGTTGCCT (site CACTTATCTAG) — higher, 0.549
- CACTTGCCTTGGGTTCTAACCTGTTGCCT (site CACTTGACTAG) — within 0.2 log units, 0.0347
- CACTTGCCTTGGGTTCTAACCTGTTGCCT (site CACTTGCCTAG) — higher, 0.754
- CACTTGCCTTGGGTTCTAACCTGTTGCCT (site CACTTGGCTAG) — within 0.2 log units, 0.0743
- CACTTGCCTTGGGTTCTAACCTGTTGCCT (site CACTTGTCTAG) — higher, 0.614
- CACTTGGCTTGGGTTCTAACCTGTTGCAG (site CACTGGGCTCT) — higher, 0.468
- CACTTGGCTTGGGTTCTAACCTGTTGCAG (site CACTTGGCTCT) — higher, 0.706
- CAGAAGCCTTGGGTTCTAACCTGTTGCCT (site AAGAAGCCTAG) — higher, 0.661
- CAGAAGCCTTGGGTTCTAACCTGTTGCCT (site CAGAAGCCTAG) — higher, 1.65
- CAGAAGCCTTGGGTTCTAACCTGTTGCCT (site GAGAAGCCTAG) — within 0.2 log units, 0.193
- CAGAAGCCTTGGGTTCTAACCTGTTGCCT (site TAGAAGCCTAG) — within 0.2 log units, 0.0644
- CAGACTTCTTGGGTTCTAACCTGTTGCCT (site CAGACTTCTAG) — higher, 0.473
- CAGACTTCTTGGGTTCTAACCTGTTGCCT (site CCGACTTCTAG) — higher, 0.375
- CAGACTTCTTGGGTTCTAACCTGTTGCCT (site CGGACTTCTAG) — within 0.2 log units, 0.039
- CAGACTTCTTGGGTTCTAACCTGTTGCCT (site CTGACTTCTAG) — within 0.2 log units, 0.0642
- CAGAGCCCTTGGGTTCTAACCTGTTGCTG (site CAGAGCCCTCA) — higher, 1.84
- CAGAGCCCTTGGGTTCTAACCTGTTGCTG (site CTGAGCCCTCA) — within 0.2 log units, 0.0157
- CAGAGGCCTTGGGTTCTAACCTGTTGCCT (site CAGAGGCCTAG) — within 0.2 log units, 0.224
- CAGAGGCCTTGGGTTCTAACCTGTTGCCT (site CAGCGGCCTAG) — higher, 0.376
- CAGAGGCCTTGGGTTCTAACCTGTTGCCT (site CAGGGGCCTAG) — the same, 0.149
- CAGAGGCCTTGGGTTCTAACCTGTTGCCT (site CAGTGGCCTAG) — within 0.2 log units, 0
- CAGAGGTCTTGGGTTCTAACCTGTTGCCT (site CAGAGCTCTAG) — within 0.2 log units, 0
- CAGAGGTCTTGGGTTCTAACCTGTTGCCT (site CAGAGGTCTAG) — higher, 1.39
- CAGCAAGCTTGGGTTCTAACCTGTTGCCT (site CAGCAAGCTAG) — higher, 1.17
- CAGCAAGCTTGGGTTCTAACCTGTTGCCT (site CAGTACGCTAG) — within 0.2 log units, 0.0513
- CAGCACTCTTGGGTTCTAACCTGTTGCTA (site CAGCACTCTTA) — higher, 2.12
- CAGCACTCTTGGGTTCTAACCTGTTGCTA (site CAGGACTCTAA) — within 0.2 log units, 0.201
